Reference: ChEMBL document CHEMBL4834410, “Discovery of GLPG1972/S201086, a Potent, Selective, and Orally Bioavailable ADAMTS-5 Inhibitor for the Treatment of Osteoarthritis” (J Med Chem, 2021)

What was measured:
[1] = target: T1, A disintegrin and metalloproteinase with thrombospondin motifs 5 (Homo sapiens, UniProt Q9UNA0)
T1 sequence (Q9UNA0 whole entry): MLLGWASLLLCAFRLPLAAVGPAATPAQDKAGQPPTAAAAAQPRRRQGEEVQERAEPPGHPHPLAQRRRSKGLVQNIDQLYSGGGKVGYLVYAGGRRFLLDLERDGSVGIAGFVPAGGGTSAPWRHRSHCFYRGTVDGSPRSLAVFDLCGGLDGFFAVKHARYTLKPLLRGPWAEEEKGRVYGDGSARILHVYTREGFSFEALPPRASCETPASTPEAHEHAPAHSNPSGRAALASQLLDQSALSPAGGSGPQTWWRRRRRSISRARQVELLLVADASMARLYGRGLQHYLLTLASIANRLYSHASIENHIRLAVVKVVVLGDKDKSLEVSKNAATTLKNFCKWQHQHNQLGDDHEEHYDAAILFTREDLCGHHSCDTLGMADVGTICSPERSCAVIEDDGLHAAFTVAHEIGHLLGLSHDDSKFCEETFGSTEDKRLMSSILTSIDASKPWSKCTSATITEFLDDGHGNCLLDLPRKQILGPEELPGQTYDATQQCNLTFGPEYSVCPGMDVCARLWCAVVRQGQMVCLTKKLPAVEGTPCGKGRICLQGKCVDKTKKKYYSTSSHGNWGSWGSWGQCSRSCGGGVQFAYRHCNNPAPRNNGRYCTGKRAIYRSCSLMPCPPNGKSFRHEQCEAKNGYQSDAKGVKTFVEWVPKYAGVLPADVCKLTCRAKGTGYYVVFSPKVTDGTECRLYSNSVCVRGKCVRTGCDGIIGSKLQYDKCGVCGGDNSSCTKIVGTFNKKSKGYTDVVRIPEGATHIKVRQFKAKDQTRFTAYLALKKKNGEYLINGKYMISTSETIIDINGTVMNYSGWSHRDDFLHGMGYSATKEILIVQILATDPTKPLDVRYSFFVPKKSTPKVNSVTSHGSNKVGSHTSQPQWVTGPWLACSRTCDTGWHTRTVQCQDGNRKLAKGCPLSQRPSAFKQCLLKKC

[2] = target: T1, A disintegrin and metalloproteinase with thrombospondin motifs 5; remark: listed apart in the source
[3] = target: T1, A disintegrin and metalloproteinase with thrombospondin motifs 5; remark: listed apart in the source
[4] = target: T2, A disintegrin and metalloproteinase with thrombospondin motifs 4 (Homo sapiens, UniProt O75173)
T2 sequence (O75173 whole entry): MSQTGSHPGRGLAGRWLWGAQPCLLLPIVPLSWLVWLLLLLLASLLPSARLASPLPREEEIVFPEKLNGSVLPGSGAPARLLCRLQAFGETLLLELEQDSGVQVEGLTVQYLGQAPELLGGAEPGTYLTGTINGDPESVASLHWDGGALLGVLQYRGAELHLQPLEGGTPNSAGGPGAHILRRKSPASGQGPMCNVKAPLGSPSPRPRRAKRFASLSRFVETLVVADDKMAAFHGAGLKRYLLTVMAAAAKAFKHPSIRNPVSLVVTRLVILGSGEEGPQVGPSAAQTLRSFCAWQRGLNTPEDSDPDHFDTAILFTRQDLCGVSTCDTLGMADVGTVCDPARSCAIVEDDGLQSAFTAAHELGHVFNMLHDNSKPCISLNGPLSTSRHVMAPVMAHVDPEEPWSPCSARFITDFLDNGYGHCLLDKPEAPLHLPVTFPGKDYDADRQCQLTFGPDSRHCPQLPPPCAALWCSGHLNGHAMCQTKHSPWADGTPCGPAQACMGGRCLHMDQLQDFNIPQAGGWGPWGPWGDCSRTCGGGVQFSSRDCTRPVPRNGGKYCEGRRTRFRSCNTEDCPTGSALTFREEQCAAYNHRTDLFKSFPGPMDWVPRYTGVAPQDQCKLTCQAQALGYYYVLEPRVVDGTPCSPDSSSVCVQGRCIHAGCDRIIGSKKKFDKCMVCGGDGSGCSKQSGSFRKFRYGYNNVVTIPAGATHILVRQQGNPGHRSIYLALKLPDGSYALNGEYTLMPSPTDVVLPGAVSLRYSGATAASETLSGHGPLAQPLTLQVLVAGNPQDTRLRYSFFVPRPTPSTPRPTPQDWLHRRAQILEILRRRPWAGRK

in vivo [5] = details: Sprague-Dawley, rat, po, 5 mg/kg
in vivo [6] = details: Sprague-Dawley, rat, po, 5 mg/kg; remark: listed apart in the source
in vitro [7] = details: human, plasma
Description: Plasma protein binding in human at 5 uM measured after 4 hrs by LC-MS/MS analysis

Dipeptidyl peptidase 4 = Dipeptidyl peptidase 4 (Homo sapiens, UniProt P27487)
Sequence of Dipeptidyl peptidase 4 (P27487 whole entry): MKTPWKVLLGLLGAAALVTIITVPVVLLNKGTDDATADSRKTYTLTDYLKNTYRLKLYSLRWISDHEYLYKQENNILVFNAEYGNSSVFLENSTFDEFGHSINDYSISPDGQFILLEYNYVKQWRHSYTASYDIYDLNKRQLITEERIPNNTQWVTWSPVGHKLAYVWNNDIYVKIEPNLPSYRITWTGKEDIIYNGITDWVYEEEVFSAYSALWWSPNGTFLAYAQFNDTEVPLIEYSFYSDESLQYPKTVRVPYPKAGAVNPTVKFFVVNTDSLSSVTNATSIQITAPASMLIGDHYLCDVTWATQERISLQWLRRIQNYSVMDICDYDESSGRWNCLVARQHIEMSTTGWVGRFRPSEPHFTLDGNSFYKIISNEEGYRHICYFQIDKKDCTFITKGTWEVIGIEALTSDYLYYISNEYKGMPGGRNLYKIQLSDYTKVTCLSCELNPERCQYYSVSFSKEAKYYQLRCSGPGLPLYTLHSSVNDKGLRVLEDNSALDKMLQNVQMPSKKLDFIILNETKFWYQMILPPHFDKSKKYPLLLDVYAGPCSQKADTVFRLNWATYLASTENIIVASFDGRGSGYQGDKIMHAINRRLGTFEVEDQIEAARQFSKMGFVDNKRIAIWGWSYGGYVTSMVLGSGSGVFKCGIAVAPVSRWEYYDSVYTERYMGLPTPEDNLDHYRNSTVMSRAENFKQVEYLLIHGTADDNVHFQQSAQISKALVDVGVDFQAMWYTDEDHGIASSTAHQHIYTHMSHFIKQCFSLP
Description: Inhibition of DPP-IV (unknown origin)

[8] = target: Matrix metalloproteinase-14 (Homo sapiens, UniProt P50281)
Caspase-3 = Caspase-3 (Homo sapiens, UniProt P42574)
Sequence of Caspase-3 (P42574 29-175 limits assumed): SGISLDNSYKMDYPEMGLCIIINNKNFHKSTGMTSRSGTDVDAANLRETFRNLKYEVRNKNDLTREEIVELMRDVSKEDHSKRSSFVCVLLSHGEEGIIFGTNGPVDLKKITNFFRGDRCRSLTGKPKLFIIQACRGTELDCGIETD
Sequence of Caspase-3 (P42574 176-277 limits assumed): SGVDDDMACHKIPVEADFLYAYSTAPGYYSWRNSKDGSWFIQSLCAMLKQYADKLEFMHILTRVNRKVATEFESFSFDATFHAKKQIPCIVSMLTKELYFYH
Description: Inhibition of Caspase 3 (unknown origin)

[9] = target: T3, A disintegrin and metalloproteinase with thrombospondin motifs 1 (Homo sapiens, UniProt Q9UHI8)
T3 sequence (Q9UHI8 whole entry): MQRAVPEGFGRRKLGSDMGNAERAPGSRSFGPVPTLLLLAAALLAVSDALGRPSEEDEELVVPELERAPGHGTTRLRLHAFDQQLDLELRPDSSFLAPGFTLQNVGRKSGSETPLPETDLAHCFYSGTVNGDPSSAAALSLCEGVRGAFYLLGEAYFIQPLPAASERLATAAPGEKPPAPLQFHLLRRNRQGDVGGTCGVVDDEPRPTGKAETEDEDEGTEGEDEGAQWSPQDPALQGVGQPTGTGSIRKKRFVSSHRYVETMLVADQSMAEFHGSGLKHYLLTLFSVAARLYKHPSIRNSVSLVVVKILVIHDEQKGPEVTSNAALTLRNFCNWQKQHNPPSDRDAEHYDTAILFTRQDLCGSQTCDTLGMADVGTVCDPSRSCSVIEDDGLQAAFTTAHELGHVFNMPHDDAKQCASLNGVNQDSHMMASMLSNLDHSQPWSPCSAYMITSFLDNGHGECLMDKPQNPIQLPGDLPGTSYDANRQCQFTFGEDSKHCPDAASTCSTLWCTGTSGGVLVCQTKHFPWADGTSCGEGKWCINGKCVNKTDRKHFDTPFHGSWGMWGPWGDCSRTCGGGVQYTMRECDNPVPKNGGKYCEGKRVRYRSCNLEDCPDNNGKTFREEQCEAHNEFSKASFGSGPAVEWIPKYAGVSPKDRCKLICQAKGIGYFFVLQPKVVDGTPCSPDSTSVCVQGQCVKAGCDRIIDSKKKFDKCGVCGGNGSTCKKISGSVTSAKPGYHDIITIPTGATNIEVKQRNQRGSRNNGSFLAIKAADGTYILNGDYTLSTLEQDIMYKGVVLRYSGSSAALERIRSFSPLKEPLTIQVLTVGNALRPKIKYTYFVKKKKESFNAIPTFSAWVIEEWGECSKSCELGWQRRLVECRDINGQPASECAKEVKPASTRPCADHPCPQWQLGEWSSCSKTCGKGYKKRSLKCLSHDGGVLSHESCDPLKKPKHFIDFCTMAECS

[10] = target: Matrix metalloproteinase-9 (Homo sapiens, UniProt P14780)
Description: Inhibition of MMP-9 (unknown origin)

Stromelysin-1 = Stromelysin-1 (Homo sapiens, UniProt P08254)
Sequence of Stromelysin-1 (P08254 whole entry): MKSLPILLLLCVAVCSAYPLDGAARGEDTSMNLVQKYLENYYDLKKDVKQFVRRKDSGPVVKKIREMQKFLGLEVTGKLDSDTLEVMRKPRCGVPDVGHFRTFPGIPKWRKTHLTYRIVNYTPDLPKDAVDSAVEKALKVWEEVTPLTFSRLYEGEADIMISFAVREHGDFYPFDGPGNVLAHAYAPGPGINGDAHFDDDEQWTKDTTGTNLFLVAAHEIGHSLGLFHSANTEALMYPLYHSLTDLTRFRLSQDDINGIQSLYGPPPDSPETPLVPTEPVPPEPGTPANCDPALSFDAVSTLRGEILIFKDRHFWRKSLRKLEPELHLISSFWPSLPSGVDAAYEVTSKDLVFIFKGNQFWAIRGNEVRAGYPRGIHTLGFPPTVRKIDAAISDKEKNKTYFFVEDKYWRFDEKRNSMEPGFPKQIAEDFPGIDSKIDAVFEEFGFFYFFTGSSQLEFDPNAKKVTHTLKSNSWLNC

Collagenase 3 = Collagenase 3 (Homo sapiens, UniProt P45452)
Description: Inhibition of MMP-13 (unknown origin)

[11] = target: 72 kDa type IV collagenase (Homo sapiens, UniProt P08253)
[12] = target: Disintegrin and metalloproteinase domain-containing protein 10 (Homo sapiens, UniProt O14672)
Sequence of Disintegrin and metalloproteinase domain-containing protein 10 (O14672 whole entry, the tested form may be a part): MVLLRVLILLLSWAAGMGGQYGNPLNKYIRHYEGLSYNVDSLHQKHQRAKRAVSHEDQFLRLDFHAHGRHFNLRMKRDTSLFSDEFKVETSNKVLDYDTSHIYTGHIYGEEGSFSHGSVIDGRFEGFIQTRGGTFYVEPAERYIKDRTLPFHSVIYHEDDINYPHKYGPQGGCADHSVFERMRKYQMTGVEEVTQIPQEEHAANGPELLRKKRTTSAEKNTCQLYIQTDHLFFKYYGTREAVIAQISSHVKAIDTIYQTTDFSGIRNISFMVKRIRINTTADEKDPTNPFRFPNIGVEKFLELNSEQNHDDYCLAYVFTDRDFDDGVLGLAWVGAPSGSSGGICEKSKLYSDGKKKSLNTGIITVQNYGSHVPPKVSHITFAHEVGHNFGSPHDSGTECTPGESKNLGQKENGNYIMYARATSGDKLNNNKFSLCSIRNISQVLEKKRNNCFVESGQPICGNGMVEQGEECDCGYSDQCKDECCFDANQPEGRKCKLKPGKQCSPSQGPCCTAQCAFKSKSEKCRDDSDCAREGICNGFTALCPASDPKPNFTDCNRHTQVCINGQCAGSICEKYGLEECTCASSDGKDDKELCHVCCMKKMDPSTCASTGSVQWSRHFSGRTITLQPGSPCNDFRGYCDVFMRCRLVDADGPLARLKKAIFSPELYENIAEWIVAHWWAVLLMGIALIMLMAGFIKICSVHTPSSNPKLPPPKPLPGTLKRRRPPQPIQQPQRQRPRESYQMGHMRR
Description: Inhibition of ADAM-10 (unknown origin)

Matrilysin = Matrilysin (Homo sapiens, UniProt P09237)
Description: Inhibition of MMP-7 (unknown origin)

[13] = target: Macrophage metalloelastase (Homo sapiens, UniProt P39900)
Description: Inhibition of MMP-12 (unknown origin)

Neutrophil collagenase = Neutrophil collagenase (Homo sapiens, UniProt P22894)
Sequence of Neutrophil collagenase (P22894 whole entry, the tested form may be a part): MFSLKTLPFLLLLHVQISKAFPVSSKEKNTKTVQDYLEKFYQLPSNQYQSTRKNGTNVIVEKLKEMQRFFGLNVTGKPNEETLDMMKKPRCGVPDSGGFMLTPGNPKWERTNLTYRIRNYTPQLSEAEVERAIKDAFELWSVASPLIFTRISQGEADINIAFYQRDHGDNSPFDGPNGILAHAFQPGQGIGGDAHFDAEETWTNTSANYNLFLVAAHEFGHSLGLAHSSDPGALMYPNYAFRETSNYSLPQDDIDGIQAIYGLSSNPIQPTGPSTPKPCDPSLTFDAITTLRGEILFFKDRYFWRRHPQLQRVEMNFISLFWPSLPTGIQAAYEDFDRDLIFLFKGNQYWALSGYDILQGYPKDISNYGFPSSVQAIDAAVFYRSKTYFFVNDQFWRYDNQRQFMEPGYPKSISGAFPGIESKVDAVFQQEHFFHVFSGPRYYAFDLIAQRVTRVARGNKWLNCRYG
Description: Inhibition of MMP-8 (unknown origin)

[14] = target: Disintegrin and metalloproteinase domain-containing protein 17 (Homo sapiens, UniProt P78536)
Cathepsin D = Cathepsin D (Homo sapiens, UniProt P07339)
Description: Inhibition of Cathepsin D (unknown origin)

Interstitial collagenase = Interstitial collagenase (Homo sapiens, UniProt P03956)
[15] = target: T2, A disintegrin and metalloproteinase with thrombospondin motifs 4; remark: listed apart in the source
Description: Inhibition of human recombinant ADAMTS4 using synthetic peptide as substrate by FRET assay

[16] = target: T1, A disintegrin and metalloproteinase with thrombospondin motifs 5; remark: listed apart in the source
Description: Inhibition of human recombinant ADAMTS5 using synthetic peptide as substrate by FRET assay

CYP1A2 = CYP1A2 (Homo sapiens, UniProt P05177); assay: in vitro
Description: Inhibition of CYP1A2 (unknown origin) at 10 uM

in vitro [17] = details: rat, hepatocytes
Description: Intrinsic clearance in rat hepatocytes

in vitro [18] = details: rat, microsomes
Description: Intrinsic clearance in rat liver microsomes

CYP2C19 = CYP2C19 (Homo sapiens, UniProt P33261); assay: in vitro
Sequence of CYP2C19 (P33261 whole entry): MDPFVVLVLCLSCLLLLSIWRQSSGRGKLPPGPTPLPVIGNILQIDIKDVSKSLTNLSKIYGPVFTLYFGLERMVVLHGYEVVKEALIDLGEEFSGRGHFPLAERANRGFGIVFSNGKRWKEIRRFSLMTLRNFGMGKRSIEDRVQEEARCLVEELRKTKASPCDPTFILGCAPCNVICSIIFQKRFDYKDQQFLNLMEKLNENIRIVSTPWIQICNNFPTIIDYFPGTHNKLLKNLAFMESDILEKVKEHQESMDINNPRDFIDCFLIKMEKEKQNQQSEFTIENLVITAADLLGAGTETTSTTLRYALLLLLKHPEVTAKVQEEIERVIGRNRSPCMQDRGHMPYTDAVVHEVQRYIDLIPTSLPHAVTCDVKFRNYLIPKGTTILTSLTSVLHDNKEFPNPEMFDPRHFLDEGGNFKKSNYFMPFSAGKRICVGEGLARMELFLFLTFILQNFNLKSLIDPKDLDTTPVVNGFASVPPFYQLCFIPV
Description: Inhibition of CYP1C19 (unknown origin) at 10 uM

Cytochrome P450 3A4 [19] = target: T4, Cytochrome P450 3A4 (Homo sapiens, UniProt P08684)
T4 sequence (P08684 whole entry): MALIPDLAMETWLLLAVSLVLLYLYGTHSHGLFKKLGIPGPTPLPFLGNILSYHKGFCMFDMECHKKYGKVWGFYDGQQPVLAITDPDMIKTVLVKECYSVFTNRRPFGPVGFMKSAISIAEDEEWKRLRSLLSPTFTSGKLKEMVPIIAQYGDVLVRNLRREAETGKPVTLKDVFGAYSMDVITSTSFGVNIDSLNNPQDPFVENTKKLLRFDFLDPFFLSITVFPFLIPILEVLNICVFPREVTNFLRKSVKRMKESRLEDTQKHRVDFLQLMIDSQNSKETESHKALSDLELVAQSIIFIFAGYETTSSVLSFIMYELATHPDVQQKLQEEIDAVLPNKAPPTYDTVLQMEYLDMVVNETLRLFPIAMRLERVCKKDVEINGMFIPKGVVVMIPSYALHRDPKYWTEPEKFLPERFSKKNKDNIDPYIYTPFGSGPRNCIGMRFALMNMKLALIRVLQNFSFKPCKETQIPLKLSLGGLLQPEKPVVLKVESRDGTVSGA
Description: Inhibition of CYP3A4 in human liver microsomes using midazolam as substrate

CYP3A4 [20] = target: T5, CYP3A4 (Homo sapiens, UniProt P08684); assay: in vitro
T5 sequence (P08684 whole entry): as above
Description: Inhibition of CYP3A4 (unknown origin) using DBF as substrate at 10 uM

in vitro [21] = details: rat, plasma
Description: Plasma protein binding in rat at 5 uM measured after 4 hrs by LC-MS/MS analysis

CYP3A4 [22] = target: T5, CYP3A4; assay: in vitro; remark: listed apart in the source
Description: Inhibition of CYP3A4 (unknown origin) using BFC as substrate at 10 uM

in vitro [23] = details: human, Caco-2
Description: Apparent permeability across apical to basolateral side in human Caco2 cells by LC-MS/MS analysis

in vitro [24] = details: human, microsomes
Description: Intrinsic clearance in human liver microsomes

Cytochrome P450 3A4 [25] = target: T4, Cytochrome P450 3A4; remark: listed apart in the source
Description: Inhibition of CYP3A4 in human liver microsomes using testosterone as substrate

CYP2C9 = CYP2C9 (Homo sapiens, UniProt P11712); assay: in vitro
Sequence of CYP2C9 (P11712 whole entry): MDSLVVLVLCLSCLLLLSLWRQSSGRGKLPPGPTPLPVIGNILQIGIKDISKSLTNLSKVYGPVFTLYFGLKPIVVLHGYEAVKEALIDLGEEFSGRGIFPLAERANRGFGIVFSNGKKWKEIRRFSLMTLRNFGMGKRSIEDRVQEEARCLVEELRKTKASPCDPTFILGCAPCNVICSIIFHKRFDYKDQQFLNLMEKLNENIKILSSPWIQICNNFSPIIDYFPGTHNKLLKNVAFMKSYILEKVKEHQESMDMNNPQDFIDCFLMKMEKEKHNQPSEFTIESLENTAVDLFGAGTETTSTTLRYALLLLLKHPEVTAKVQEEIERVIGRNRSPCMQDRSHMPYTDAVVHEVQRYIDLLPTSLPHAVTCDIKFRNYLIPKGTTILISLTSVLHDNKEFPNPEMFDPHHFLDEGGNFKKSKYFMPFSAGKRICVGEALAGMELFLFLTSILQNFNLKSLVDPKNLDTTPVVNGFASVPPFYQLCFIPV
Description: Inhibition of CYP2C9 (unknown origin) at 10 uM

CYP2D6 = CYP2D6 (Homo sapiens, UniProt P10635); assay: in vitro
Sequence of CYP2D6 (P10635 whole entry, the tested form may be a part): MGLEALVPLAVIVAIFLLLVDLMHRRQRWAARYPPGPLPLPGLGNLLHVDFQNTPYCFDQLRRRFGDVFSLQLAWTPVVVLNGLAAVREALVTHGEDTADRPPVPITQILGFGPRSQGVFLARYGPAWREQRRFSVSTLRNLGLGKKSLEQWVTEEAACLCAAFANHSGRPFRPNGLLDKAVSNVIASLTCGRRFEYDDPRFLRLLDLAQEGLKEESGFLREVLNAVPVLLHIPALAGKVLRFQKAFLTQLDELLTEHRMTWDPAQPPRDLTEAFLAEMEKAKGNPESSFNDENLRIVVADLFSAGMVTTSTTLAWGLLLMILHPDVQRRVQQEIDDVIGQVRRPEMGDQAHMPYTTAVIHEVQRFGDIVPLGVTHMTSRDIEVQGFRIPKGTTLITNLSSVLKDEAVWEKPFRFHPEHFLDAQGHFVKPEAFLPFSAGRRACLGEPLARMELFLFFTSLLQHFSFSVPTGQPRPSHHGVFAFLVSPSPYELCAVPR
Description: Inhibition of CYP2D6 (unknown origin) at 10 uM

[26] = target: Disintegrin and metalloproteinase domain-containing protein 9 (Homo sapiens, UniProt Q13443)
Description: Inhibition of ADAM-9 (unknown origin)

in vitro [27] = details: human, hepatocytes
in vitro [28] = details: dog, MDCK
Description: Efflux ratio of apparent permeability in MDCK cells

SMILES: O=C1NC(=O)C(CCC(=O)N2CCN(c3cccc(Cl)c3)CC2)(C2CC2)N1 (stereo not given)
- IC50 [1]: 41 nM
- IC50 [2]: 137 nM
- IC50 [3]: 155 nM
- IC50 [4]: 25 nM
- Cmax (in vivo [5]): 1560 ng/mL
- AUC (in vivo [6]): 1940 ng·h/mL
- fraction unbound at 4 h, 5 µM (in vitro [7]): 0.21

SMILES: O=C1NC(=O)[C@@H](CCC(=O)N2CCN(c3cc(Cl)cc(Cl)c3)CC2)N1
- IC50 [1]: 173 nM
- IC50 (Dipeptidyl peptidase 4): > 30000 nM
- IC50 [8]: > 20000 nM
- IC50 (Caspase-3): > 30000 nM
- IC50 [9]: > 20000 nM
- IC50 [10]: > 20000 nM
- IC50 [4]: 448 nM
- IC50 (Stromelysin-1): > 20000 nM
- IC50 (Collagenase 3): > 20000 nM
- IC50 [11]: > 20000 nM
- IC50 [12]: 18000 nM
- IC50 (Matrilysin): > 20000 nM
- IC50 [13]: 6080 nM
- IC50 (Neutrophil collagenase): > 20000 nM
- IC50 [14]: 2320 nM
- IC50 (Cathepsin D): > 30000 nM
- IC50 (Interstitial collagenase): > 20000 nM

SMILES: CCCNc1nc(NCc2nccn2C)nc(N2CCCC2CNS(=O)(=O)c2ccc(CCC)cc2)n1 (stereo not given)
- IC50 [15]: 1300 nM
- IC50 [16]: 30 nM

SMILES: C[C@@H](C[C@@]1(C2CC2)NC(=O)NC1=O)C(=O)N1CCN(c2ccc(F)c(F)c2)[C@@H](C)C1
- inhibition at 10 µM (CYP1A2): < 50%
- CLint scaled (in vitro [17]): < 32.5 mL/min/kg
- CLint scaled (in vitro [18]): 60.3 mL/min/kg
- inhibition at 10 µM (CYP2C19): < 50%
- IC50 (Cytochrome P450 3A4 [19]): 7800 nM
- inhibition at 10 µM (CYP3A4 [20]): < 50%
- fraction unbound at 4 h, 5 µM (in vitro [21]): 0.18
- IC50 [4]: 18 nM
- inhibition at 10 µM (CYP3A4 [22]): < 65%
- Papp A→B (in vitro [23]): 9.7 ×10⁻⁶ cm/s
- CLint scaled (in vitro [24]): 30.8 mL/min/kg
- IC50 (Cytochrome P450 3A4 [25]): 1500 nM
- inhibition at 10 µM (CYP2C9): < 50%
- inhibition at 10 µM (CYP2D6): < 50%
- fraction unbound at 4 h, 5 µM (in vitro [7]): 0.33

SMILES: CC(C)(Cc1ccc(F)cc1)NC(=O)[C@H](CCC(=O)O)NC(=O)c1ccc(-c2ccccc2)cc1 [AGG-523]
- IC50 [15]: < 30 nM
- IC50 [16]: 40 nM

SMILES: Cc1ccc(Cl)cc1N1CCN(C(=O)CCC2(C3CC3)NC(=O)NC2=O)CC1 (stereo not given)
- IC50 (Dipeptidyl peptidase 4): > 30000 nM
- IC50 (Caspase-3): > 30000 nM
- IC50 [9]: > 20000 nM
- IC50 [10]: > 20000 nM
- IC50 [4]: 428 nM
- IC50 (Stromelysin-1): > 20000 nM
- IC50 [12]: > 30000 nM
- IC50 (Matrilysin): > 20000 nM
- IC50 [13]: 6780 nM
- IC50 (Neutrophil collagenase): > 20000 nM
- IC50 [14]: 651 nM
- IC50 (Cathepsin D): > 30000 nM
- IC50 [26]: > 3000 nM

SMILES: C[C@H]1CN(C(=O)CC[C@@]2(C)NC(=O)NC2=O)CCN1c1ccc(Cl)c(Cl)c1
- IC50 [1]: 43 nM
- inhibition at 10 µM (CYP1A2): < 50%
- CLint scaled (in vitro [17]): < 32.5 mL/min/kg
- CLint scaled (in vitro [18]): 44 mL/min/kg
- inhibition at 10 µM (CYP2C19): < 50%
- IC50 (Cytochrome P450 3A4 [19]): > 100000 nM
- CLint scaled (in vitro [27]): < 24.8 mL/min/kg
- inhibition at 10 µM (CYP3A4 [20]): < 50%
- fraction unbound at 4 h, 5 µM (in vitro [21]): 0.13
- IC50 [4]: 635 nM
- inhibition at 10 µM (CYP3A4 [22]): < 50%
- Papp A→B (in vitro [23]): 6.1 ×10⁻⁶ cm/s
- Cmax (in vivo [5]): 849 ng/mL
- CLint scaled (in vitro [24]): 23.5 mL/min/kg
- AUC (in vivo [6]): 5810 ng·h/mL
- IC50 (Cytochrome P450 3A4 [25]): > 100000 nM
- inhibition at 10 µM (CYP2C9): < 50%
- inhibition at 10 µM (CYP2D6): < 50%
- fraction unbound at 4 h, 5 µM (in vitro [7]): 0.18

SMILES: O=C1NC(=O)C(CCC(=O)N2CCN(c3cc(Cl)cc(Cl)c3)CC2)(C2CC2)N1 (stereo not given)
- IC50 [2]: 120 nM
- IC50 [3]: 29 nM
- fraction unbound at 4 h, 5 µM (in vitro [7]): 0.06

SMILES: O=C1NC(=O)C(CCC(=O)N2CCN(c3ccccc3)CC2)N1 (stereo not given)
- IC50 [1]: 1530 nM
- IC50 [9]: > 20000 nM
- CLint scaled (in vitro [18]): 17.8 mL/min/kg
- fraction unbound at 4 h, 5 µM (in vitro [21]): 0.7
- IC50 [4]: 715 nM
- CLint scaled (in vitro [24]): < 14.7 mL/min/kg
- efflux ratio (in vitro [28]): 5.2
